ChEMBL document CHEMBL1152934, “Quinazolindione derivatives as potent 5-HT3A receptor antagonists” (Bioorg Med Chem, 2009)

target: Voltage-dependent T-type calcium channel subunit alpha-1G (Homo sapiens, UniProt O43497); test: Antagonist activity against T-type calcium channel alpha1G; format: functional
Sequence (O43497 whole entry): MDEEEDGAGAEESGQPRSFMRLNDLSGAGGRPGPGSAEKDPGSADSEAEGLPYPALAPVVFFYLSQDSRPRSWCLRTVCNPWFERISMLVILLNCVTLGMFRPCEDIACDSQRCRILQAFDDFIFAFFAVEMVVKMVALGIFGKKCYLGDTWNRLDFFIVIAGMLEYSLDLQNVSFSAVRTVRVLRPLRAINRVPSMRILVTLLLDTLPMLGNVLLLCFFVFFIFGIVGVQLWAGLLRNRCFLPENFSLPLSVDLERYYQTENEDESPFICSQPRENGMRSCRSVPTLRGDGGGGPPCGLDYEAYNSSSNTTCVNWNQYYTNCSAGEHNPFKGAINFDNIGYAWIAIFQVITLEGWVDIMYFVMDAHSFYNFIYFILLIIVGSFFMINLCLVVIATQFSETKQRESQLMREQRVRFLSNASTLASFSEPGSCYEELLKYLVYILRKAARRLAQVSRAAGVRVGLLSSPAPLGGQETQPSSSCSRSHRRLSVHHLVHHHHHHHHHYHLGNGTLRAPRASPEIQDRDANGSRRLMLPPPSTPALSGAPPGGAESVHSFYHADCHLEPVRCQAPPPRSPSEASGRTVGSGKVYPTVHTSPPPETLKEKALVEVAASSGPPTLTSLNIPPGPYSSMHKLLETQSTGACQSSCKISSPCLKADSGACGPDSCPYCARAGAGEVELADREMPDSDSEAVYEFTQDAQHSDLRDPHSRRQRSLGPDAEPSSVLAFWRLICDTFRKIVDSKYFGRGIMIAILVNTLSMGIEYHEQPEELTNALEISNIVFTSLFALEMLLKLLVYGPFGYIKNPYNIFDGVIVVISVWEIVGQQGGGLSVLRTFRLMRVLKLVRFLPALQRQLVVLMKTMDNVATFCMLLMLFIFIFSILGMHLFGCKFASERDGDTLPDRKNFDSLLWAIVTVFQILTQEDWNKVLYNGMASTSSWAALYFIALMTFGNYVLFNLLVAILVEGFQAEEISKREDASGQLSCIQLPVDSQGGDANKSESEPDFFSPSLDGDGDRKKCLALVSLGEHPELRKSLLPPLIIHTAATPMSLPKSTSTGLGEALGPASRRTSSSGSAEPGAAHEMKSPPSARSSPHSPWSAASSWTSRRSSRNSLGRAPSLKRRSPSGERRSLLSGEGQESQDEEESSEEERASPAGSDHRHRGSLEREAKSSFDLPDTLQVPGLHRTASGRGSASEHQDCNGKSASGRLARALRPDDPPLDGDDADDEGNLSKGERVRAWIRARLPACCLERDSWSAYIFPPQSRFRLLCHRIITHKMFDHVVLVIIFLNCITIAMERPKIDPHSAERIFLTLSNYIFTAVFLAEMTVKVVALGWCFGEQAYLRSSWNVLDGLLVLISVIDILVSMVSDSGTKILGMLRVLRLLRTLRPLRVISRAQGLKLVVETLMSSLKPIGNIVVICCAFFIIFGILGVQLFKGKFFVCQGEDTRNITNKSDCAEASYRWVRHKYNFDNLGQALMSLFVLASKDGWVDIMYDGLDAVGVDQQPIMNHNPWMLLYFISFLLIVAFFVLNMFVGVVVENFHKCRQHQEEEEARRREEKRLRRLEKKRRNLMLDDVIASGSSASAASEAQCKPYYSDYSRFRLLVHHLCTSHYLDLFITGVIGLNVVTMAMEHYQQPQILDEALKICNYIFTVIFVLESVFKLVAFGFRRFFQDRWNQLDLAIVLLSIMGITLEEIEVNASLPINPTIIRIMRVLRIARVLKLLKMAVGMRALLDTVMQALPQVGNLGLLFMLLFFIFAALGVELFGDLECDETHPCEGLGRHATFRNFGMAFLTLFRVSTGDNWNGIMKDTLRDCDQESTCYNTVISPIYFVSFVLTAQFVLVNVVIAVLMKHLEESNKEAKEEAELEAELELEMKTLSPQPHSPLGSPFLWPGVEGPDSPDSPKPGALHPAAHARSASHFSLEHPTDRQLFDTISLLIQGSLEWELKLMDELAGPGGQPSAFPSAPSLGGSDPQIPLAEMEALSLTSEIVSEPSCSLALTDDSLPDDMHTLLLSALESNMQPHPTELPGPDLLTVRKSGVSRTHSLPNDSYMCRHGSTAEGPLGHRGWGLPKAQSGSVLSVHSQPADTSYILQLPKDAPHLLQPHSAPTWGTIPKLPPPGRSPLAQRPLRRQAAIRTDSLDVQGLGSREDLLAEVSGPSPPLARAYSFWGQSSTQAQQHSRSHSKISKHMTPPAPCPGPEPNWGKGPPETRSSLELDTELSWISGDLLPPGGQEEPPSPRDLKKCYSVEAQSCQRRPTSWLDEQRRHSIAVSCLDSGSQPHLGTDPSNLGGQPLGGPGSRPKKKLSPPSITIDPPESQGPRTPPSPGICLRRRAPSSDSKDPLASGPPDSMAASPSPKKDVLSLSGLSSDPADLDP

Row | IC50 | Structure (SMILES)
1 | Not Active | COc1ccccc1Cn1c(=O)[nH]c2cc(C(=O)NCCN3CCCCC3)ccc2c1=O
2 | Not Active | COc1ccc(Cn2c(=O)[nH]c3cc(C(=O)NCCN4CCCCC4)ccc3c2=O)cc1
3 | Not Active | COc1cccc(Cn2c(=O)[nH]c3cc(C(=O)NCCN4CCCCC4)ccc3c2=O)c1
4 | Not Active | CC1CCCCN1CCNC(=O)c1ccc2c(=O)n(Cc3ccc(Cl)cc3)c(=O)[nH]c2c1 (stereo not drawn)
5 | Not Active | O=C(NCCCN1CCOCC1)c1ccc2c(=O)n(Cc3ccc(Cl)cc3)c(=O)[nH]c2c1
6 | Not Active | O=C(NCCN1CCCCC1)c1ccc2c(=O)n(-c3ccc(F)cc3)c(=O)[nH]c2c1
7 | Not Active | COc1ccc(-n2c(=O)[nH]c3cc(C(=O)NCCN4CCCCC4)ccc3c2=O)cc1
8 | Not Active | Cn1c(=O)[nH]c2cc(C(=O)NCCN3CCCCC3)ccc2c1=O
9 | Not Active | O=C(NCCN1CCCCC1)c1ccc2c(=O)n(Cc3ccccc3F)c(=O)[nH]c2c1
10 | Not Active | O=C(NCCN1CCCCC1)c1ccc2c(=O)n(C3CCCCC3)c(=O)[nH]c2c1
11 | Not Active | CCCn1c(=O)[nH]c2cc(C(=O)NCCN3CCCCC3)ccc2c1=O
12 | Not Active | CCC1CCCCN1CCCNC(=O)c1ccc2c(=O)n(Cc3ccc(Cl)cc3)c(=O)[nH]c2c1 (stereo not drawn)

Row | Structure (SMILES) | IC50
13 | O=C(NCCN1CCCCC1)c1ccc2c(=O)n(Cc3ccccc3Cl)c(=O)[nH]c2c1 | Not Active
14 | O=C(NCCN1CCOCC1)c1ccc2c(=O)n(Cc3ccc(F)cc3)c(=O)[nH]c2c1 | Not Active
15 | CC1CCCCN1CCCNC(=O)c1ccc2c(=O)n(Cc3ccc(Cl)cc3)c(=O)[nH]c2c1 (stereo not drawn) | Not Active
16 | CC1CCCCN1CCCNC(=O)c1ccc2c(=O)n(C3CCCCC3)c(=O)[nH]c2c1 (stereo not drawn) | Not Active
17 | O=C(NCCN1CCOCC1)c1ccc2c(=O)n(Cc3ccc(Cl)cc3)c(=O)[nH]c2c1 | Not Active
18 | O=C(NCCN1CCOCC1)c1ccc2c(=O)n(-c3ccc(F)cc3)c(=O)[nH]c2c1 | Not Active
